Source: patent US20240309090A1, “MODULATION OF ANDROGEN SIGNALING TO INNATE IMMUNE KILLING OF PROSTATE CANCER” (Brown University, priority 2023, published 2024)

Columns and labels:
PC3 cell line = experiment: Flow cytometry of HLA-E surface expression on AR-negative PC3; type: cell-based; details: non-AR-transduced PC3
From the text: (§1) To evaluate the modulation of the androgen receptor and tumor HLA-E expression, we astably transduced AR negative cell lines PC3 and DU145 with an Androgen Response Element (ARE) GFP reporter (FIG. 16H). […] Using AR+ constructed cell lines, PC3 and DU145, we sought to determine the dependence of HLA-E expression and possible modulation by AR. […] Although potential therapies targeting immune enhancement are being explored, the expression of exhaustion markers such as PD-1, NKG2A, and potential engaging ligands that diminish their cytotoxic function limits their application. Exploring these factors with new combination approaches, such as ARi and anti-NKG2A, and understanding the modulation of its targets upon treatment is key in overcoming immune-resistant scenarios, especially in prostate cancer.
Experiments were conducted with noncytotoxic doses of vorinostat (0.3 μM) and panobinostat (3 nM).
PCa cells were plated at a density of 3×10^5 cells per well of a 6-well plate and adhered overnight. […] After treatment, cells were trypsinized, stained, and incubated (Cell Staining Buffer SouthernBiotech #0225-01S) with the corresponding antibody for 45-60 min at 4° C. Viability dye was added with each run. NK-92 cells and patient-derived cells were stained similarly. Markers used for experiments included: Thermofisher HLA-E Monoclonal Antibody (3D12HLA-E), Alexa Fluor™ 488, eBioscience™, CD274 (PD-L1, B7-H1) Monoclonal Antibody (MIH1), eFluor™ 450, eBioscience™, Cell Signaling PD-1 (D4W2J) XPR Rabbit mAb, SYTOX™ Orange Dead Cell Stain, for flow cytometry, BioLegend APC anti-human CD159a (NKG2A) Antibody #375108, BioLegend APC anti-human CD69 Antibody #310909, BioLegend Alexa Fluor® 647 anti-human CD137 (4-1BB) [4B4-1] #309823. For staining of the patient-derived PBMCs and subsequent NK cell characterization, the following antibodies were used: BioLegend Anti-Perforin Mouse Monoclonal Antibody (PerCP Cy5.50, clone: dG9) #308113, BioLegend Anti-Granzyme B Mouse Monoclonal Antibody (FITC, clone: GB11) #515403, BioLegend Anti-CD56 Mouse Monoclonal Antibody (Alexa Fluor® 700, clone: 5.1H1) #362521, and BioLegend (PE anti-human CD45 Antibody) #304008.

DU145 [1] = experiment: Flow cytometry of HLA-E surface expression on non-AR-transduced DU145; type: cell-based
From the text: as §1
PCa cells were plated at a density of 3×10^5 cells per well of a 6-well plate and adhered overnight. […] After treatment, cells were trypsinized, stained, and incubated (Cell Staining Buffer SouthernBiotech #0225-01S) with the corresponding antibody for 45-60 min at 4° C. Viability dye was added with each run. NK-92 cells and patient-derived cells were stained similarly. […]

LNCaP [2] = experiment: Co-culture of GFP-expressing LNCaP with patient-derived NK cells; type: cell-based, human; details: GFP LNCaP, 1:1, 24 h; monalizumab in combination with enza and daro
From the text: To validate an additive effect of ARi and monalizumab enhancing NK cell cytotoxicity, we performed a co-culture assay with GFP-labeled PCa cell lines (including ARi-sensitive LNCaP and ARi-resistant PC3) and patient-derived NK cells. The NK cells were negatively selected from whole blood from patients with metastatic prostate cancer before initiation of androgen deprivation therapy. The addition of enzalutamide or darolutamide enhanced the cytotoxicity of NK cells, and the combination of ARi with monalizumab potentiated immune killing (FIG. 15C-D).
Prostate cancer cell lines were dyed with the blue CMAC live-cell dye (Thermo Fisher Scientific #C2110, per manufacturer protocol). Blue-fluorescent cancer cells were plated at a density of 10,000 cells per well of a 48-well plate. NK-92 cells were dyed with green CMFDA (Cayman Chemical Company #19583, per manufacturer protocol). Green-fluorescent NK-92 cells were added to the blue-fluorescent cancer cells at a 1:1 ratio. Enzalutamide (10 μM), darolutamide (20 μM), and 1 μM ethidium homodimer (EthD-1) were added at the same time as the NK cells. After 24 hours of co-culture, images of live cancer cells, live NK cells, and dead cells were taken using a fluorescent microscope. The co-culture experiments were run with internal control conditions and as a single treatment. Normalization was performed after analysis to take baseline death conditions into each experiment run. To optimize the high output of these experiments, a subset of co-cultures were performed using the ImageXpress® Micro Confocal High-Content Imaging. This analysis maintained the experiment conditions, drug concentrations, and the dyeing process. When GFP-labeled tumor cells were used for culture assays, they were added in a 1:1 ratio. Cell adhered over 24 h, and when patient-derived NK cells were added, a control well was trypsinized, and cells resuspended and counted to adjust a 1:1 ratio before treatment addition. The experiments with blocking antibodies were performed using the ImageXpress system. TRAIL blocking ab was purchased from Santa Cruz TRAIL Antibody (RIK-2): sc-56246, and IFN gamma blocking Monoclonal Antibody (NIB42, #6-7318-81) was purchased from Thermo Fisher. The blocking mAb was added when NK cells were combined with tumor cells.
NK cells were isolated from patients harboring metastatic castration-sensitive prostate cancer using the MojoSort™ Human NK Cell Isolation Kit (#480053). Patients signed informed consent for IRB-approved research protocol number 2055-13, allowing the collection of peripheral blood samples. […] The untouched NK cells (CD56+, CD3−) were collected, and the purity of isolation was determined by flow cytometry using anti-CD56 (BioLegend 362503). […]

LNCaP [3] = experiment: Co-culture of LNCaP with NK-92 cells, immune-mediated tumor cell killing; type: cell-based
Procedure: (§2) They were co-treated with enzalutamide ([…]) or darolutamide (20 μM) for 48 h. Doses of AR inhibitors (ARi) used in the co-culture experiments were based on previous IC50 experiments. […] The immune-mediated effect of NK-92 on the PCa cell lines in the presence of enzalutamide (immune enhancement death) was normalized to baseline immune and tumor cell killing in each condition [(tumor cells+immune cells)-tumor baseline death=baseline immune death]. […] Cytokine analysis was performed to investigate the activation phenotype of NK cells when treated with ARi.
(§3) Prostate cancer cell lines were dyed with the blue CMAC live-cell dye (Thermo Fisher Scientific #C2110, per manufacturer protocol). Blue-fluorescent cancer cells were plated at a density of 10,000 cells per well of a 48-well plate. NK-92 cells were dyed with green CMFDA (Cayman Chemical Company #19583, per manufacturer protocol). Green-fluorescent NK-92 cells were added to the blue-fluorescent cancer cells at a 1:1 ratio. Enzalutamide (10 μM), darolutamide (20 μM), and 1 μM ethidium homodimer (EthD-1) were added at the same time as the NK cells. After 24 hours of co-culture, images of live cancer cells, live NK cells, and dead cells were taken using a fluorescent microscope. The co-culture experiments were run with internal control conditions and as a single treatment. Normalization was performed after analysis to take baseline death conditions into each experiment run. […] Cell adhered over 24 h, and when patient-derived NK cells were added, a control well was trypsinized, and cells resuspended and counted to adjust a 1:1 ratio before treatment addition. […]
(§4) Live cancer cells, NK cells, and dead cells were quantified using FIJI (Fiji Is Just ImageJ) software for images derived from fluorescent co-culture images. Images from the ImageXpress system were quantified using MetaXpress cytoplasmic/nuclear staining software. The percent of dead tumor cells in each well was quantified, and this percentage was normalized by subtracting baseline death from cancer cell-only wells, NK cell-only wells, or both.

PC3 = experiment: Co-culture of PC3 with NK-92 cells, immune-mediated tumor cell killing; type: cell-based; details: PC3 + NK-92 1:1, 24 hours
Procedure: as §2
(§5) Prostate cancer cell lines were dyed with the blue CMAC live-cell dye (Thermo Fisher Scientific #C2110, per manufacturer protocol). […] Cell adhered over 24 h, and when patient-derived NK cells were added, a control well was trypsinized, and cells resuspended and counted to adjust a 1:1 ratio before treatment addition. […]
as §4

22Rv1 = experiment: Co-culture of 22Rv1 with NK-92 cells, immune-mediated tumor cell killing; type: cell-based
Procedure: as §2, §3, §4

DU145 [4] = experiment: Co-culture of DU145 with NK-92 cells, immune-mediated tumor cell killing; type: cell-based; details: DU145 + NK-92 1:1, 24 hours
Procedure: as §2, §5, §4

Structure (SMILES) | HLA-E expression (PC3 cell line) | HLA-E expression (DU145 [1]) | killing of PCa cells by patient-derived NK cells (in words) (LNCaP [2]) | cell death rate (NK cell-mediated tumor killing) (LNCaP [3]; LNCaP + NK-92 1:1, 24 hours) | NK cell killing of PCa cells (immune enhancement) (LNCaP [3]; LNCaP + NK-92 1:1, enzalutamide 10 μM, FIG. 15A) | cell death rate (NK cell-mediated tumor killing) (PC3) | cell death rate (NK cell-mediated tumor killing) (22Rv1; 22Rv1 + NK-92 1:1, 24 hours) | NK cell killing of PCa cells (immune enhancement) (22Rv1; 22Rv1 + NK-92 1:1, enzalutamide 10 μM, FIG. 15B) | cell death rate (NK cell-mediated tumor killing) (DU145 [4])
CC(O)c1cc(C(=O)N[C@@H](C)Cn2ccc(-c3ccc(C#N)c(Cl)c3)n2)n[nH]1 (stereo partly shown) [darolutamide] | 15.47% | 1.23% | enhanced |  |  |  |  |  | 
CNC(=O)c1ccc(N2C(=S)N(c3ccc(C#N)c(C(F)(F)F)c3)C(=O)C2(C)C)cc1F [enzalutamide] |  |  | enhanced | 48.3% | 35.32% | 11.05±4.6% | 52.67±8.96% | 34.84% | 34.8±4.92%
